For nine compounds, GI50 and TGI results are on record in PubChem BioAssay (NCI).

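Assay format: 96-well plates, 48-hour exposure. GI50 marks 50% less growth. TGI: total growth inhibition.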 A value given as a limit tells only on which side of the number the result lay.

Among the test systems are HS 578T breast; HT29 colon; RXF 393 renal; A498 renal; NCI-H226 lung; OVCAR-5 ovarian; U251 CNS; OVCAR-3 ovarian; HCT-15 colon; OVCAR-4 ovarian.
What all share (experiment): NCI-60 cell line screen, 48 h

Regarding `O=S(=O)(NCCNc1cc(-c2cn(-c3ccccc3)nc2-c2cccc(O)c2)ccn1)c1ccc(Cl)cc1`, the GI50 was 3 µM with HS 578T breast; 2.24 µM in the assay with HT29 colon; 2.86 µM in the assay on RXF 393 renal; 2.33 µM with A498 renal; 4.02 µM in the assay on NCI-H226 lung; 2.66 µM in the assay on OVCAR-5 ovarian. Further, the GI50 in the assay with U251 CNS is 3.21 µM; in the assay on OVCAR-3 ovarian, 2.06 µM; in the assay with HCT-15 colon, 2.14 µM; with OVCAR-4 ovarian it was 4.37 µM. For the same compound, the TGI was over 100 µM in the assay with HS 578T breast; 5.21 µM in the assay on HT29 colon; 10.1 µM in the assay with RXF 393 renal; 9.52 µM with A498 renal; 21.2 µM in the assay with NCI-H226 lung; 11 µM in the assay with OVCAR-5 ovarian. Further, the TGI with U251 CNS is 11.4 µM; in the assay with OVCAR-3 ovarian, 5.05 µM; with HCT-15 colon, 6.42 µM; with OVCAR-4 ovarian, over 100 µM.

For `O=C(Nc1ccccc1O)c1ccc(CNC(=O)c2sccc2Nc2ccnc(C(F)(F)F)c2)cc1`, the GI50 is 12.7 µM in the assay on HS 578T breast; 6.21 µM in the assay with HT29 colon; 3.28 µM with RXF 393 renal; 2.62 µM in the assay with A498 renal; 8.07 µM in the assay on NCI-H226 lung; 5.9 µM with OVCAR-5 ovarian. Also, the GI50 in the assay on U251 CNS is 5.44 µM; in the assay with OVCAR-3 ovarian, 7.48 µM; in the assay with HCT-15 colon, 6.54 µM; in the assay on OVCAR-4 ovarian it was 5.35 µM. For the same compound, the TGI was over 100 µM with HS 578T breast; 27 µM in the assay on HT29 colon; 15.6 µM with RXF 393 renal; 9.7 µM with A498 renal; 45 µM in the assay on NCI-H226 lung; 24.6 µM with OVCAR-5 ovarian. For the same compound, the TGI in the assay with U251 CNS is 20.8 µM; in the assay with OVCAR-3 ovarian, 21.6 µM; in the assay on HCT-15 colon, 26.8 µM; with OVCAR-4 ovarian it was over 100 µM.

In the case of `COc1ccc2c(c1)cn1c3ccc(O)cc3[nH]c(=O)c21`, the GI50 was 0.481 µM with HS 578T breast; 0.411 µM in the assay on HT29 colon; 0.0592 µM in the assay with RXF 393 renal; 0.377 µM in the assay on A498 renal; 0.181 µM with NCI-H226 lung; 2.79 µM in the assay on OVCAR-5 ovarian. The GI50 is 0.143 µM with U251 CNS, 0.0968 µM in the assay on OVCAR-3 ovarian, 0.111 µM with HCT-15 colon and 2.41 µM in the assay on OVCAR-4 ovarian. In addition, the TGI in the assay with HS 578T breast came to 25.2 µM; in the assay on HT29 colon it was 2.18 µM; in the assay on RXF 393 renal, 0.627 µM; in the assay on A498 renal it was 20.7 µM; in the assay with NCI-H226 lung, 6.92 µM; in the assay with OVCAR-5 ovarian it was 21.5 µM. Moreover, the TGI in the assay with U251 CNS amounted to 1.9 µM; with OVCAR-3 ovarian, 1.74 µM; in the assay on HCT-15 colon, 2.21 µM; in the assay on OVCAR-4 ovarian, 13.4 µM.

With `COc1ccc(-c2nnc(N3CCN(C(=O)CN4CCN(c5ccc(Cl)cc5)CC4)CC3)nc2-c2ccc(OC)cc2)cc1`, the GI50 was 23.5 µM in the assay with HS 578T breast; 4.74 µM in the assay with HT29 colon; 18.9 µM in the assay with RXF 393 renal; 27.7 µM with A498 renal; 46.8 µM with NCI-H226 lung; over 100 µM with OVCAR-5 ovarian. Further, the GI50 in the assay on U251 CNS was 15 µM; in the assay on OVCAR-3 ovarian it was 28.7 µM; with HCT-15 colon, 15.8 µM; in the assay with OVCAR-4 ovarian it was over 100 µM. The TGI was over 100 µM in the assay on HS 578T breast; over 100 µM in the assay on HT29 colon; over 100 µM in the assay on RXF 393 renal; 72.2 µM in the assay with A498 renal; over 100 µM in the assay with NCI-H226 lung; over 100 µM in the assay with OVCAR-5 ovarian. Moreover, the TGI with U251 CNS, in the assay with OVCAR-3 ovarian, in the assay on HCT-15 colon and in the assay with OVCAR-4 ovarian was over 100 µM throughout.

`C[C@]12C3CC[C@@]4(CO)C[C@]3(CCC1[C@](C)(C(=O)O)CC[C@@H]2O)CC4=O` (stereo not given in full): the GI50 in the assay on HS 578T breast, in the assay with HT29 colon, in the assay on RXF 393 renal, with A498 renal, in the assay on NCI-H226 lung and with OVCAR-5 ovarian was over 100 µM throughout. Moreover, the GI50 with U251 CNS, in the assay with OVCAR-3 ovarian, in the assay with HCT-15 colon and with OVCAR-4 ovarian was over 100 µM each time. Besides, the TGI in the assay on HS 578T breast, with HT29 colon, with RXF 393 renal, with A498 renal, with NCI-H226 lung and with OVCAR-5 ovarian was over 100 µM in each case. Further, the TGI in the assay with U251 CNS, with OVCAR-3 ovarian, with HCT-15 colon and in the assay with OVCAR-4 ovarian was over 100 µM in each case.

As for `C1=C(c2ccccc2)SC=C(c2ccccc2)S1`, the TGI in the assay on HS 578T breast is over 100 µM; with HT29 colon, 75.1 µM; in the assay on RXF 393 renal, 48.1 µM; in the assay on A498 renal, over 100 µM; in the assay with NCI-H226 lung it was 81.8 µM; in the assay with OVCAR-5 ovarian, over 100 µM. The TGI with U251 CNS, in the assay with OVCAR-3 ovarian, in the assay with HCT-15 colon and in the assay with OVCAR-4 ovarian was over 100 µM throughout.

For the compound `COc1ccc(/C=C(/C)[N+](=O)[O-])cc1`, the TGI in the assay on HS 578T breast is 27.3 µM; in the assay on HT29 colon, 11.9 µM; in the assay on RXF 393 renal, 3.16 µM; with A498 renal it was 8.28 µM; in the assay with NCI-H226 lung, 39.7 µM; in the assay on OVCAR-5 ovarian it was 9.47 µM. Further, the TGI in the assay with U251 CNS was found to be 3.05 µM; in the assay with OVCAR-3 ovarian, 3.26 µM; with HCT-15 colon, 7.36 µM; in the assay with OVCAR-4 ovarian, 10.6 µM.

In the case of `COc1cc(-c2cc(/C=C3\C(=O)Nc4ccccc43)[nH]n2)cc(OC)c1OC`, the GI50 in the assay on HS 578T breast was 5.43 µM; with HT29 colon, 3.15 µM; with RXF 393 renal it was 8.83 µM; in the assay on A498 renal it was 2.5 µM; in the assay with NCI-H226 lung, 2.43 µM; in the assay on OVCAR-5 ovarian, 5.16 µM. In addition, the GI50 with U251 CNS was 3.63 µM; in the assay on OVCAR-3 ovarian, 3.21 µM; in the assay with HCT-15 colon, 2.57 µM; in the assay with OVCAR-4 ovarian, 1.91 µM. The TGI in the assay on HS 578T breast is 62.8 µM; with HT29 colon, 17.7 µM; in the assay on RXF 393 renal it was 22.5 µM; in the assay on A498 renal it was 7.71 µM; in the assay on NCI-H226 lung, 15.5 µM; in the assay with OVCAR-5 ovarian, 27.9 µM. The TGI in the assay on U251 CNS is 19.6 µM; with OVCAR-3 ovarian, 14.5 µM; in the assay on HCT-15 colon it was 10.1 µM; in the assay with OVCAR-4 ovarian it was 8.98 µM.

With `O=C(Nc1cccc(O)c1)c1cccc(NC2=C(Cl)C(=O)N(Cc3ccccc3)C2=O)c1`, the GI50 was 12.7 µM in the assay with HS 578T breast; 22.2 µM in the assay with HT29 colon; 14.8 µM in the assay with RXF 393 renal; 13.2 µM in the assay on A498 renal; 18.7 µM in the assay with NCI-H226 lung; 12.1 µM in the assay on OVCAR-5 ovarian. In addition, the GI50 in the assay with U251 CNS is 13.7 µM; with OVCAR-3 ovarian, 8.16 µM; with HCT-15 colon, 16.2 µM; in the assay on OVCAR-4 ovarian it was 19.2 µM. Further, the TGI was 43.5 µM with HS 578T breast; 49.7 µM with HT29 colon; 42.3 µM in the assay with RXF 393 renal; 28.9 µM with A498 renal; 44.4 µM in the assay on NCI-H226 lung; 28 µM with OVCAR-5 ovarian. Also, the TGI in the assay with U251 CNS was 26.6 µM; in the assay with OVCAR-3 ovarian it was 23 µM; with HCT-15 colon it was 30.1 µM; in the assay on OVCAR-4 ovarian, 47.9 µM.
